Measured values from patent US8324130B2, “Synergistic active ingredient combinations” (Bayer Cropscience AG, priority 2006, dated 2012).

Tests used:
Format in all cases: in vivo
Aphis gossypii = Aphis gossypii test (cotton leaves dipped into active compound preparation)
Procedure: (§1) Solvent: 7 parts by weight of dimethylformamide
(§2) Emulsifier: 2 parts by weight of alkylaryl polyglycol ether
(§3) To produce a suitable preparation of active compound, 1 part by weight of active compound is mixed with the stated amounts of solvent and emulsifier, and the concentrate is diluted with emulsifier-containing water to the desired concentration.
Cotton leaves (Gossypium hirsutum) which are heavily infested by the cotton aphid (Aphis gossypii) are treated by being dipped into the preparation of active compound of the desired concentration.
(§4) After the desired period of time, the kill in % is determined. 100% means that all aphids have been killed; 0% means that none of the aphids have been killed. The kill rates determined are entered into Colby's formula (see page 1).

Myzus persicae = Myzus persicae test (cabbage leaves dipped into active compound preparation)
Procedure: as §1, §2, §3
Cabbage leaves (Brassica oleracea) which are heavily infested by the Green peach aphid (Myzus persicae) are treated by being dipped into the preparation of active compound of the desired concentration.
as §4

Phaedon cochleariae = Phaedon cochleariae test (cabbage leaves dipped, populated with larvae); conditions: 200 ppm, larvae on cabbage leaves
Procedure: as §1, §2, §3
After the desired period of time, the kill in % is determined. 100% means that all beetle larvae have been killed; 0% means that none of the beetle larvae have been killed. The kill rates determined are entered into Colby's formula (see page 1).

## CN(Cc1ccc(Cl)nc1)C1=CC(=O)OC1 [compound (Ia), 4-[[(6-chloropyridin-3-yl)methyl](methylamino)]furan-2-(5H)-one]
Aphis gossypii; 0.16 ppm
  Kill in % after 6^d: 40%
Aphis gossypii; 0.8 ppm
  Kill in % after 6^d: 70%
Myzus persicae; 0.16 ppm
  Kill in % after 1^d: 0%
Myzus persicae; 0.8 ppm
  Kill in % after 1^d: 40%
  Kill in % after 6^d: 75%

## O=C1C=C(N(Cc2ccc(Cl)nc2)C2CC2)CO1 [compound (Ib), 4-[[(6-chloropyridin-3-yl)methyl] (cyclopropylamino)]furan-2-(5H)-one]
Aphis gossypii; 0.8 ppm
  Kill in % after 1^d: 30%
  Kill in % after 6^d: 40%
Myzus persicae; 4 ppm
  Kill in % after 1^d: 75%
Phaedon cochleariae
  Kill in % after 3^d: 60%

## N#Cc1c[nH]cc1-c1cccc2c1OC(F)(F)O2 [fludioxonil, reference compound]
Aphis gossypii; 100 ppm
  Kill in % after 6^d: 0%
Myzus persicae; 100 ppm
  Kill in % after 1^d: 0%

## COCC(=O)N(c1c(C)cccc1C)C(C)C(=O)OC (centres unmarked) [metalaxyl, reference compound]
Aphis gossypii; 100 ppm
  Kill in % after 1^d: 10%
Myzus persicae; 100 ppm
  Kill in % after 1^d: 0%

## CCCOC(=O)NCCCN(C)C [propamocarb, reference compound]
Phaedon cochleariae
  Kill in % after 3^d: 5%

## OC(Cc1ccccc1Cl)(Cn1nc[nH]c1=S)C1(Cl)CC1 (centres unmarked) [prothioconazole, reference compound]
Myzus persicae; 100 ppm
  Kill in % after 1^d: 0%
  Kill in % after 6^d: 0%

## CO/N=C(/C(=O)OC)c1ccccc1CO/N=C(\C)c1cccc(C(F)(F)F)c1 [trifloxystrobin, reference compound]
Aphis gossypii; 100 ppm
  Kill in % after 6^d: 40%
